Reference: patent publication US10450297B2, “Sulfonyl amide derivatives for the treatment of abnormal cell growth” (Pfizer, Inc., priority 2007, dated 2019)
pIC50: −log10 of the molar value.

Target: FAK kinase (catalytic construct FAK(410-689)) (Homo sapiens (Human), UniProt Q05397)
Assay: FAKcd kinase ELISA (inhibition of poly-glu-tyr phosphorylation by FAK(410-689))
Type: biochemical
Conditions: 50 μM final ATP

FAK kinase (catalytic construct FAK(410-689)), sequence (Q05397 410-689): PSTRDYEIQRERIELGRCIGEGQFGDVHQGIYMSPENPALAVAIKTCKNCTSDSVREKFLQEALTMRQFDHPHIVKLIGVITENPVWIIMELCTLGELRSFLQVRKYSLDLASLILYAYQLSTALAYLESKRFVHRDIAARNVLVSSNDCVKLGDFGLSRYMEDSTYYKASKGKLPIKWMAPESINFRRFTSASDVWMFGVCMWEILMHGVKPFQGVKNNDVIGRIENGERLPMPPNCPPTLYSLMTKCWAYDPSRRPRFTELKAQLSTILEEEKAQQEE

Compound | pIC50
COc1ccc(C(N)=O)cc1Nc1ncc(C(F)(F)F)c(NCc2ncccc2N(C)S(C)(=O)=O)n1 [Compound 306, 4-methoxy-3-({4-[({3-[methyl(methylsulfonyl)amino]pyridin-2-yl}methyl)amino]-5-(trifluoromethyl)pyrimidin-2-yl}amino)benzamide] | 9.16
COc1ccc(C(N)=O)cc1Nc1ncc(C(F)(F)F)c(NCc2nccnc2N(C)S(C)(=O)=O)n1 [Compound 307, 4-methoxy-3-({4-[({3-[methyl(methylsulfonyl)amino)pyrazin-2-yl}methyl)amino]-5-(trifluoromethyl)pyrimidin-2-yl}amino)benzamide] | 8.95
Cc1ccc(C(N)=O)cc1Nc1ncc(C(F)(F)F)c(NCc2nccnc2N(C)S(C)(=O)=O)n1 [Compound 309, 4-methyl-3-({4-[({3-[methyl(methylsulfonyl)amino]pyrazin-2-yl}methyl)amino]-5-(trifluoromethyl)pyrimidin-2-yl}amino)benzamide] | 8.45
CC(=O)c1ccc(Nc2ncc(C(F)(F)F)c(NCc3cccnc3N(C)S(C)(=O)=O)n2)cc1 [Compound 311, N-{3-[({2-[(4-acetylphenyl)amino]-5-(trifluoromethyl)pyrimidin-4-yl}amino)methyl]pyridin-2-yl}-N-methylmethane-sulfonamide] | 9.00
CC(=O)c1cccc(Nc2ncc(C(F)(F)F)c(NCc3cccnc3N(C)S(C)(=O)=O)n2)c1 [Compound 312, N-{3-[({2-[(3-acetylphenyl)amino]-5-(trifluoromethyl)pyrimidin-4-yl}amino)methyl]pyridin-2-yl}-N-methylmethane-sulfonamide] | 8.90
CN(c1ncccc1CNc1nc(Nc2ccc(-c3nnn[nH]3)cc2)ncc1C(F)(F)F)S(C)(=O)=O [Compound 314, N-methyl-N-[3-({[2-{[4-(1H-tetrazol-5-yl)phenyl]amino}-5-(trifluoromethyl)pyrimidin-4-yl]amino}methyl)pyridin-2-yl]methanesulfonamide] | > 9.23
COC(=O)c1ccc(Nc2ncc(C(F)(F)F)c(NCc3cccc(N(C(F)F)S(C)(=O)=O)c3)n2)cc1 [Compound 321, 4-{[4-({3-[(difluoromethyl)(methyl-sulfonyl)amino]benzyl}amino)-5-(trifluoromethyl)pyrimidin-2-yl]amino}benzoate] | 6.92
CN(c1ncccc1CNc1nc(Nc2ccc(C(C)(C)O)cc2)ncc1C(F)(F)F)S(C)(=O)=O [Compound 323, N-[3-({[2-{[4-(1-hydroxy-1-methylethyl)phenyl]amino}-5-(trifluoromethyl)pyrimidin-4-yl]amino}methyl)pyridin-2-yl]-N-methylmethane-sulfonamide] | 8.82
CN(c1cccnc1CNc1nc(Nc2ccc(C(C)(C)O)cc2)ncc1C(F)(F)F)S(C)(=O)=O [Compound 325, N-[2-({[2-{[4-(1-hydroxy-1-methylethyl)phenyl]amino}-5-(trifluoromethyl)pyrimidin-4-yl)amino}methyl)pyridin-3-yl]-N-methylmethane-sulfonamide] | 8.58

Next, values leading:

pIC50 | Compound
8.79 | CN(c1nccnc1CNc1nc(Nc2ccc(C(C)(C)O)cc2)ncc1C(F)(F)F)S(C)(=O)=O [Compound 326, N-[3-({[2-{(4-(1-hydroxy-1-methylethyl)phenyl]amino}-5-(trifluoromethyl)pyrimidin-4-yl]amino}methyl)pyrazin-2-yl]-N-methylmethane-sulfonamide]
8.77 | CN(c1nccnc1CNc1nc(Nc2ccc(C(N)=O)c(F)c2)ncc1C(F)(F)F)S(C)(=O)=O [Compound 327, 2-fluoro-4-({4-[({3-[methyl(methylsulfonyl)amino]pyrazin-2-yl}methyl)amino]-5-(trifluoromethyl)pyrimidin-2-yl}amino)benzamide]
9.21 | CC(O)c1ccc(Nc2ncc(C(F)(F)F)c(NCc3cccc(N(C)S(C)(=O)=O)c3)n2)cc1 (stereo not shown) [Compound 328, N-[3-({[2-{[4-(1-hydroxyethyl)phenyl]amino}-5-(trifluoromethyl)pyrimidin-4-yl]amino}methyl)phenyl]-N-methylmethanesulfonamide]
9.04 | CC(O)c1ccc(Nc2ncc(C(F)(F)F)c(NCc3ncccc3N(C)S(C)(=O)=O)n2)cc1 (stereo not shown) [Compound 329, N-[2-({[2-{[4-(1-hydroxyethyl)phenyl}amino}-5-(trifluoromethyl)pyrimidin-4-yl]amino}methyl)pyridin-3-yl)-N-methylmethane-sulfonamide]
9.12 | CC(O)c1ccc(Nc2ncc(C(F)(F)F)c(NCc3nccnc3N(C)S(C)(=O)=O)n2)cc1 (stereo not shown) [Compound 330, N-[3-({[2-{[4-(1-hydroxyethyl)phenyl]amino}-5-(trifluoromethyl)pyrimidin-4-yl]amino}methyl)pyrazin-2-yl]-N-methylmethane-sulfonamide]
8.75 | CN(c1cccnc1CNc1nc(Nc2ccc(C(N)=O)c(F)c2)ncc1C(F)(F)F)S(C)(=O)=O [Compound 331, 2-fluoro-4-({4-[({3-[methyl(methylsulfonyl)amino]pyridin-2-yl}methyl)amino]-5-(trifluoromethyl)pyrimidin-2-yl}amino)benzamide]
9.06 | CN(c1cccnc1CNc1nc(Nc2ccc(C(N)=O)c(F)c2)ncc1C(F)(F)F)S(C)(=O)=O [Compound 332, 2-fluoro-4-({4-[({3-[methyl(methylsulfonyl)amino]pyridin-2-yl}methyl)amino]-5-(trifluoromethyl)pyrimidin-2-yl}amino)benzamide]
8.67 | CN(c1cccc(CNc2nc(Nc3ccc(C(N)=O)c(F)c3)ncc2C(F)(F)F)c1)S(C)(=O)=O [Compound 333, 2-fluoro-4-{[4-({3-[methyl(methylsulfonyl)amino]benzyl}amino)-5-(trifluoromethyl)pyrimidin-2-yl]amino}benzamide]
> 9.23 | Cc1cc(Nc2ncc(C(F)(F)F)c(NCc3cccnc3N(C)S(C)(=O)=O)n2)ccc1C(N)=O [Compound 334, 2-methyl-4-({4-[({2-[methyl(methylsulfonyl)amino]pyridin-3-yl}methyl)amino]-5-(trifluoromethyl)pyrimidin-2-yl)amino)benzamide]
> 9.23 | Cc1cc(Nc2ncc(C(F)(F)F)c(NCc3ncccc3N(C)S(C)(=O)=O)n2)ccc1C(N)=O [Compound 336, 2-methyl-4-({4-[({3-[methyl(methylsulfonyl)amino]pyridin-2-yl}methyl)amino]-5-(trifluoromethyl)pyrimidin-2-yl)amino)benzamide]
> 9.23 | Cc1cc(Nc2ncc(C(F)(F)F)c(NCc3nccnc3N(C)S(C)(=O)=O)n2)ccc1C(N)=O [Compound 338, 2-methyl-4-({4-[({3-[methyl(methylsulfonyl)amino]pyrazin-2-yl}methyl)amino]-5-(trifluoromethyl)pyrimidin-2-yl}amino)benzamide]
> 9.23 | Cc1cc(Nc2ncc(C(F)(F)F)c(NCc3cccc(N(C)S(C)(=O)=O)c3)n2)ccc1C(N)=O [Compound 340, 2-methyl-4-{[4-({3-[methyl(methylsulfonyl)amino]benzyl}amino)-5-(trifluoromethyl)pyrimidin-2-yl]amino}benzamide]
> 9.23 | Cc1cc(C(N)=O)ccc1Nc1ncc(C(F)(F)F)c(NCc2cccnc2N(C)S(C)(=O)=O)n1 [Compound 341, 3-methyl-4-({4-[({2-[methyl(methylsulfonyl)amino]pyridin-3-yl}methyl)amino]-5-(trifluoromethyl)pyrimidin-2-yl}amino)benzamide]
